Here are results for three molecules from paper PMC11239830, “Synthetic macrolides overcoming MLSBK-resistant pathogens” (Cell Discovery, 2024).

Data set [1] relates to E. coli JW5503 ΔtolC pDualrep2. Kind of data set: pDualrep2 dual-reporter assay. The conditions noted are these: red = Katushka2S, translation inhibitors; green = RFP, DNA damage. It is filed as cell-based.
In the next data set the test system is HepG2 cells. Briefly: CCK-8 assay for cytotoxicity. The conditions noted are these: for cytotoxicity at 5 μM: HepG2, 5 μM, 48 h. Format: cell-based, human. The procedure:
(§1) HepG2 cells (6 × 10^3) and HEK293T cells (4 × 10^3) were seeded into 96-well plates in 90 μL of DMEM medium containing 10% FBS per well. All test compounds were formulated as 10 mM stock solutions in DMSO (final concentration ≤ 0.5%). After overnight incubation, the test compound stock solution was diluted with DMEM medium containing 10% FBS to every target concentration, and 10 μL of each was added to each well. Three parallel experiments were set up for each compound. After incubation for 48 h, 10 μL of cell counting kit-8 (CCK-8) reagent was added to each well in sequence according to the manufacturer’s instructions. After incubating in a 37 °C incubator for 1–2 h, the absorbance was measured at a wavelength of 450 nm, and detected by ThermoScientific Multiskan FC (ThermoFisher Scientific, USA). This experiment was independently repeated three times. The data were processed by GraphPad Prism.

A short description of data set [2]: CCK-8 assay for cytotoxicity. It is filed as cell-based, human. The procedure:
as §1
A general note: Tetrazolium dyes change colour on reduction, which living cells bring about.

Data set [3] relates to E. coli S30 extract protein synthesis. Kind of data set: In vitro E. coli transcription/translation assay. Format: biochemical. The conditions noted are these: cell-free transcription/translation, materials from E. coli. An excerpt:
The in vitro transcription/translation assay for E. coli utilized materials from the E. coli S30 extract system for circular DNA (L1020, Promega, USA). This kit contains all the necessary components for efficient transcription and translation of a user-provided DNA template. To test the inhibition of protein synthesis, the assay uses plasmid pBESTluc, which contains the firefly luciferase gene, as the DNA template. The intensity of luminescence resulting from luciferase expression corresponds to the efficiency of protein synthesis. The luminescence intensity was quantified in the presence or absence of the tested compounds. […] This experiment was repeated twice independently.

Data set [4] has as its system human ribosome (HEK293F whole-cell lysate). Briefly: Mammalian cell-free in vitro translation assay. Format: biochemical. The conditions noted are these: human ribosomes, read-out: IC50, translation of Fluc mRNA. As to the method:
For the in vitro translation assay, the whole-cell extract was derived from cultured HEK293F cells. The translation reactions were conducted in a total volume of 10 μL, comprising 4 μL of the HEK293F extract, 1 μL 10× Translation Buffer containing 160 mM HEPESs-KOH (pH 7.6), 100 mM Creatine phosphate, 1 mM Spermidine, 10 mM ATP, 1 mM GTP, 20 mM DTT, 800 ng/μL CKM, 600 mM KOAc, 30 mM Mg(OAc)2 and 200 μM Amino acids. The reaction mixture also included 2 U of RiboLock RNase inhibitor (ThermoFisher Scientific), 0.5 mM D-luciferin (Promega), 1 μL of either antibiotic solution or solvent (water or 10% DMSO), as specified, and 100 ng mRNA (added as a 1 μL water solution after pre-incubation of the reaction mixture with antibiotic for 5 min at 30 °C). Following the addition of mRNA, the mixtures were transferred to a pre-heated 96-well CELL CULTER PLATE (WHB), sealed with a PCR plate seal, and incubated in the CLARIOstar plate reader (BMG Labtech) at 37 °C with continuous luciferase activity measurement, following established procedures[66],[67]. Luciferase activity values were determined based on light intensities at 60 min.

Data set [5] can be described thus: In vivo pharmacokinetic study. The conditions noted are these: SD (Sprague-Dawley), rat, iv, plasma. On the set-up: species or system SD rats. As to the method: The SD rats were fasted overnight and dosed i.v. at a dose of 5 mg/kg in a solution of DMSO/PEG 400/water (5%/24%/71%). The whole blood was collected into tubes containing sodium heparin at 0.083 h, 0.25 h, 0.5 h, 1 h, 2 h, 4 h, 8 h and 24 h after dosing. After centrifugation of 6000 rpm for 10 min at 4 °C, plasma samples were transferred into 1.5 mL tubes and stored at –20 °C. Prior to analysis, the samples were thawed on ice. An amount of 50 μL of each plasma sample was added to a mixture of 50 μL of propranolol (300 ng/mL) and 100 μL of acetonitrile and centrifuged at 12,000 rpm at 4 °C for 10 min. The supernatant was diluted and analyzed by LC-MS/MS. The liquid chromatography was conducted on a Thermo Scientific Q Exactive HF-X (ThermoFisher Scientific, USA) instrument, employing an ACQUITY UPLC BEH C18 Column with dimensions of 130 Å, 1.7 µm, 2.1 mm × 100 mm. The liquid phase method employed gradient elution with mobile phases consisting of acetonitrile and an 0.1% aqueous formic acid solution. Mass spectrometry was conducted in positive ion mode. The quantification of drug concentration in plasma samples was performed using the internal standard method, and the obtained pharmacokinetic parameters were calculated using Phoenix WinNonlin software.

For a further data set, the system named is S. aureus. Briefly: Time-kill kinetics assay. Format: cell-based, Staphylococcus aureus. As to the method:
To further determine the bactericidal activity of MCX-219, a time-kill assay was performed according to the method described previously. The S. aureus cultured overnight was diluted 10^4 times with CAMHB broth and incubated for 2 h. […] The number of colonies was measured at 0 h, 1 h, 3 h, 6 h, 9 h and 24 h. A flask containing bacteria left unexposed to antibiotic was used as blank control, and telithromycin was used as the positive drug (comparator drug).

The test system of the next data set is H. influenzae. Kind of data set: MIC, broth microdilution. It is filed as cell-based, Haemophilus influenzae. The gist of the method:
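Read-out is the lowest concentration without observed growth after 16–20 h at 37 °C, using the CLSI broth microdilution method.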
Background: Broth dilution looks for growth in wells or tubes with falling amounts of substance.

[6] abbreviates: human, HepG2 cells, HepG2 cell viability, 48 h, read-out: CC50.
[7] abbreviates: Haemophilus influenzae, ATCC49247, H. influenzae ATCC49247, Azi-S, read-out: MIC.

Converted amounts (≈) assume the structure as drawn. Like-named read-outs stand apart in the source and are kept apart here. Where only a bound is given, the exact number is not on record here.

Usually CC50 stands for the concentration giving 50% cytotoxicity. As a reminder, the IC50 is the point on the concentration scale where inhibition reaches its midpoint. With `CC[C@H]1OC(=O)[C@H](C)[C@@H](OC(=O)NCCCOCCC#Cc2ccc3c(=O)c(C(=O)O)cn(C)c3c2)[C@H](C)[C@@H](O[C@@H]2O[C@H](C)C[C@H](N(C)C)[C@H]2O)[C@](C)(OC)C[C@@H](C)C(=O)[C@H](C)[C@H]2NC(=O)O[C@@]21C` [MCX-190], in data set [1], the “dual-reporter inhibition zone colour” value is recorded as “red color inhibition zone”. Moreover, in the data set with HepG2 cells, the “cytotoxicity at 5 μM” value is reported as “significantly reduced cytotoxicity compared to TcmX”. Further, in the data set on HepG2 cells (human HepG2 and HEK293T cells), the “CC50 (cytotoxicity)” value is listed as “essentially non-cytotoxic”. In data set [2] (setting [6]), the CC50 at 48 h is more than 200 µM. Moreover, the half-maximal inhibitory concentration (IC50) is 670 nM in data set [3] and more than 100 µM in data set [4].

Broadly, the Cmax is the peak of the concentration-time curve. In general, MRT refers to the average time that molecules of a dose stay in the body. A word on the Tmax: it is the time at which the peak concentration occurs. What is called half-life is how long it takes for the measured level to halve. Low readings indicate fast loss, high ones slow loss. The AUC(0-inf) is total exposure, with the tail of the curve extrapolated. In general, clearance refers to a measure of how efficiently the substance is removed, as volume per time. Low readings indicate a low capacity for elimination, high ones a high capacity for elimination. `CC[C@H]1OC(=O)[C@H](C)[C@@H](OC(=O)NCCCCCCC#Cc2ccc3c(=O)c(C(=O)O)cn(C)c3c2)[C@H](C)[C@@H](O[C@@H]2O[C@H](C)C[C@H](N(C)C)[C@H]2O)[C@](C)(OC)C[C@@H](C)C(=O)[C@H](C)[C@H]2NC(=O)O[C@@]21C` [MCX-219]: the peak level in data set [5] (male SD rats, i.v. 5 mg/kg) (Cmax) was 15000 ± 2810 ng/mL. This molecule also yielded an MRT in data set [5] (male SD rats, i.v. 5 mg/kg) of 1.13 ± 0.0139 h. In data set [5] (male SD rats, i.v. 5 mg/kg), the time to peak (Tmax) was determined as 4.8 min. For the same molecule, the half-life in data set [5] (male SD rats, i.v. 5 mg/kg) was 235 ± 7.02 min. This molecule also had a total exposure AUC(0-inf) in data set [5] (male SD rats, i.v. 5 mg/kg, mean ± SD, n 3) of 7090 ± 1360 ng·h/mL. The AUC(0-t) in data set [5] (male SD rats, i.v. 5 mg/kg, read-out: AUC0-24) turned out to be 7080 ± 1360 ng·h/mL. The molecule further gave a clearance in data set [5] (male, 5 mg/kg) of 12.2 mL/min/kg. The “dual-reporter inhibition zone colour” value in data set [1] is on record as “red color inhibition zone”. The “cytotoxicity at 5 μM” value in the data set with HepG2 cells is “significantly reduced cytotoxicity compared to TcmX”. Besides, the 50% cytotoxic concentration (CC50) at 48 h in data set [2] (human HepG2 and HEK293T cells, read-out: CC50 (cytotoxicity)) is 26 to 29 µM; in data set [2] (setting [6]), 28.9 ± 2.68 µM. Also, the IC50 in data set [3] was 1190 nM; in data set [4] it was more than 100 µM. The time-kill kinetics result in the data set with S. aureus (constitutively erm-modified S. aureus 15B196) is “bactericidal”; with S. aureus (induciblely erm-modified S. aureus PU32) it was “bacteriostatic”. The MIC in the data set on H. influenzae (H. influenzae ATCC49247, Azi-S, listed as 88g) was determined as 4 µg/mL (≈ 4.14 µM); in the data set with H. influenzae (setting [7]), 2 µg/mL (≈ 2.07 µM).

For `CC[C@H]1OC(=O)[C@H](C)C(=O)[C@H](C)[C@@H](O[C@@H]2O[C@H](C)C[C@H](N(C)C)[C@H]2O)[C@](C)(OC)C[C@@H](C)C(=O)[C@H](C)[C@H]2N(CCCCn3cnc(-c4cccnc4)c3)C(=O)O[C@]12C` [telithromycin, reference compound], the MIC in the data set on H. influenzae (setting [7]) turned out to be 4 µg/mL (≈ 4.93 µM).
